From article PMC12472621, “Excavating Precursors from Herb Pairs Polygala tenuifolia and Acori tatarinowii: Synthesis and Anticonvulsant Activity Evaluation of 3,4,5-Trimethoxycinnamic Acid (TMCA) Piperazine Amide Derivatives” (Pharmaceuticals, 2025)
Like-named read-outs stand apart in the source and are kept apart here.

Tested on: maximal electroshock (MES) induced seizures
Assay: Maximal electroshock (MES) test
Type: in vivo, mice
Conditions: Mus musculus, ip, 100 mg/kg i.p., mice
Source text: Male Kunming mice (23–28 g) were maintained under controlled conditions with ad libitum access to standard pellet diet and water. Test compounds were formulated immediately prior to administration in normal saline containing 0.5% Tween-80. Our experiment was authorized by the Institutional Animal Care and Use Committee of Shaanxi University of Chinese Medicine (animal ethics certificate number: SUCMDL20210309027).
The MES test carried out following the method of Swinyard. A 60 Hz current (50 mA; 0.25 s duration) was delivered via corneal electrodes using a YSD-4G electro convulsion meter (Zhenghua Instruments, Huaibei, China, SN: ZH0056232). […] Test compounds were suspended in an identical vehicle. Protection was defined as abolition of tonic hindlimb extension.

[1] = 0.5 h, read-out: MES model, protected mice/total mice, 0.5 h (converted)
[2] = 1 h, read-out: MES model, protected mice/total mice, 1 h (converted)
[3] = 2 h, read-out: MES model, protected mice/total mice, 2 h (converted)
[4] = 3 h, read-out: MES model, protected mice/total mice, 3 h (converted)

COc1cc(/C=C/C(=O)N2CCN(CCCC(=O)O[C@H]3C[C@H]4CC[C@]3(C)C4(C)C)CC2)cc(OC)c1OC (relative stereo) [A7, rel-(1R,2S,4R)-1,7,7-trimethylbicyclo [2.2.1]heptan-2-yl 4-(4-((E)-3-(3,4,5-trimethoxyphenyl)acryloyl)piperazin-1-yl)butanoate]
responders at 100 mg/kg [1]: 75%
responders at 100 mg/kg [2]: 50%
responders at 100 mg/kg [3]: 25%
responders at 100 mg/kg [4]: 0%

COc1cc(/C=C/C(=O)N2CCN(CCCC(=O)O)CC2)cc(OC)c1OC [A1]
responders at 100 mg/kg [1]: 25%
responders at 100 mg/kg [2]: 25%
responders at 100 mg/kg [3]: 0%
responders at 100 mg/kg [4]: 0%

C=CCc1ccc(OC(=O)CCCN2CCN(C(=O)/C=C/c3cc(OC)c(OC)c(OC)c3)CC2)c(OC)c1 [A2, 4-allyl-2-methoxyphenyl (E)-4-(4-(3-(3,4,5-trimethoxyphenyl)acryloyl)piperazin-1-yl)butanoate]
responders at 100 mg/kg [1]: 50%
responders at 100 mg/kg [2]: 50%
responders at 100 mg/kg [3]: 25%
responders at 100 mg/kg [4]: 0%

C=CCc1ccccc1OC(=O)CCCN1CCN(C(=O)/C=C/c2cc(OC)c(OC)c(OC)c2)CC1 [A4, 2-allylphenyl (E)-4-(4-(3-(3,4,5-trimethoxyphenyl)acryloyl)piperazin-1-yl)butanoate]
responders at 100 mg/kg [1]: 50%
responders at 100 mg/kg [2]: 50%
responders at 100 mg/kg [3]: 25%
responders at 100 mg/kg [4]: 0%

COc1cc(OC)c(OC)cc1/C=C/COC(=O)CCCN1CCN(C(=O)/C=C/c2cc(OC)c(OC)c(OC)c2)CC1 [A5, (E)-3-(2,4,5-trimethoxyphenyl)allyl 4-(4-((E)-3-(3,4,5-trimethoxyphenyl)acryloyl)piperazin-1-yl)butanoate]
responders at 100 mg/kg [1]: 75%
responders at 100 mg/kg [2]: 75%
responders at 100 mg/kg [3]: 50%
responders at 100 mg/kg [4]: 0%

COc1cc(/C=C/C(=O)N2CCN(CCCC(=O)OCC=Cc3ccccc3)CC2)cc(OC)c1OC [A6, cinnamyl 4-(4-((E)-3-(3,4,5-trimethoxyphenyl)acryloyl)piperazin-1-yl)butanoate]
responders at 100 mg/kg [1]: 50%
responders at 100 mg/kg [2]: 50%
responders at 100 mg/kg [3]: 25%
responders at 100 mg/kg [4]: 0%

COc1cc(/C=C/C(=O)N2CCN(CCCC(=O)N3CCN(C(c4ccccc4)c4ccccc4)CC3)CC2)cc(OC)c1OC [A8, (E)-1-(4-benzhydrylpiperazin-1-yl)-4-(4-(3-(3,4,5-trimethoxyphenyl)acryloyl)piperazin-1-yl)butan-1-one]
responders at 100 mg/kg [1]: 75%
responders at 100 mg/kg [2]: 50%
responders at 100 mg/kg [3]: 25%
responders at 100 mg/kg [4]: 0%

COc1cc(/C=C/C(=O)N2CCN(CCCC(=O)N3CCN(c4nsc5ccccc45)CC3)CC2)cc(OC)c1OC [A10, (E)-1-(4-(benzo[d]isothiazol-3-yl)piperazin-1-yl)-4-(4-(3-(3,4,5-trimethoxyphenyl)acryloyl)piperazin-1-yl)butan-1-one]
responders at 100 mg/kg [1]: 75%
responders at 100 mg/kg [2]: 25%
responders at 100 mg/kg [3]: 25%
responders at 100 mg/kg [4]: 0%

COc1cc(/C=C/C(=O)N2CCN(CCCC(=O)N3CCN(c4ccccc4)CC3)CC2)cc(OC)c1OC [A11, (E)-1-(4-phenylpiperazin-1-yl)-4-(4-(3-(3,4,5-trimethoxyphenyl)acryloyl)piperazin-1-yl)butan-1-one]
responders at 100 mg/kg [1]: 25%
responders at 100 mg/kg [2]: 25%
responders at 100 mg/kg [3]: 25%
responders at 100 mg/kg [4]: 0%

COc1cc(/C=C/C(=O)N2CCN(CCCC(=O)N3CCN(c4cccc(Cl)c4)CC3)CC2)cc(OC)c1OC [A13, (E)-1-(4-(3-chlorophenyl)piperazin-1-yl)-4-(4-(3-(3,4,5-trimethoxyphenyl)acryloyl)piperazin-1-yl)butan-1-one]
responders at 100 mg/kg [1]: 25%
responders at 100 mg/kg [2]: 25%
responders at 100 mg/kg [3]: 0%
responders at 100 mg/kg [4]: 0%

COc1ccccc1N1CCN(C(=O)CCCN2CCN(C(=O)/C=C/c3cc(OC)c(OC)c(OC)c3)CC2)CC1 [A15, (E)-1-(4-(2-methoxyphenyl)piperazin-1-yl)-4-(4-(3-(3,4,5-trimethoxyphenyl)acryloyl)piperazin-1-yl)butan-1-one]
responders at 100 mg/kg [1]: 75%
responders at 100 mg/kg [2]: 75%
responders at 100 mg/kg [3]: 25%
responders at 100 mg/kg [4]: 0%

COc1cc(/C=C/C(=O)N2CCN(CCCC(=O)N3CCN(c4ncccn4)CC3)CC2)cc(OC)c1OC [A16, (E)-1-(4-(pyrimidin-2-yl)piperazin-1-yl)-4-(4-(3-(3,4,5-trimethoxyphenyl)acryloyl)piperazin-1-yl)butan-1-one]
responders at 100 mg/kg [1]: 75%
responders at 100 mg/kg [2]: 75%
responders at 100 mg/kg [3]: 50%
responders at 100 mg/kg [4]: 0%

COc1cc(/C=C/C(=O)N2CCN(CCCC(=O)N3CCC(c4noc5cc(F)ccc45)CC3)CC2)cc(OC)c1OC [A17, (E)-1-(4-(6-fluorobenzo[d]isoxazol-3-yl)piperidin-1-yl)-4-(4-(3-(3,4,5-trimethoxyphenyl)acryloyl)piperazin-1-yl)butan-1-one]
responders at 100 mg/kg [1]: 50%
responders at 100 mg/kg [2]: 50%
responders at 100 mg/kg [3]: 25%
responders at 100 mg/kg [4]: 0%

COc1cc(/C=C/C(=O)N2CCN(C(=O)CCC(=O)O)CC2)cc(OC)c1OC [B1]
responders at 100 mg/kg [1]: 25%
responders at 100 mg/kg [2]: 25%
responders at 100 mg/kg [3]: 0%
responders at 100 mg/kg [4]: 0%

C=CCc1ccc(OC(=O)CCC(=O)N2CCN(C(=O)/C=C/c3cc(OC)c(OC)c(OC)c3)CC2)c(OC)c1 [B2, 4-allyl-2-methoxyphenyl (E)-4-oxo-4-(4-(3-(3,4,5-trimethoxyphenyl)acryloyl)piperazin-1-yl)butanoate]
responders at 100 mg/kg [1]: 75%
responders at 100 mg/kg [2]: 75%
responders at 100 mg/kg [3]: 25%
responders at 100 mg/kg [4]: 0%

C/C=C/c1ccc(OC(=O)CCC(=O)N2CCN(C(=O)/C=C/c3cc(OC)c(OC)c(OC)c3)CC2)c(OC)c1 [B3, 2-methoxy-4-((E)-prop-1-en-1-yl)phenyl 4-oxo-4-(4-((E)-3-(3,4,5-trimethoxyphenyl)acryloyl)piperazin-1-yl)butanoate]
responders at 100 mg/kg [1]: 75%
responders at 100 mg/kg [2]: 75%
responders at 100 mg/kg [3]: 25%
responders at 100 mg/kg [4]: 0%

C=CCc1ccccc1OC(=O)CCC(=O)N1CCN(C(=O)/C=C/c2cc(OC)c(OC)c(OC)c2)CC1 [B4, 2-allylphenyl (E)-4-oxo-4-(4-(3-(3,4,5-trimethoxyphenyl)acryloyl)piperazin-1-yl)butanoate]
responders at 100 mg/kg [1]: 75%
responders at 100 mg/kg [2]: 50%
responders at 100 mg/kg [3]: 50%
responders at 100 mg/kg [4]: 0%

COc1cc(/C=C/C(=O)N2CCN(C(=O)CCC(=O)O[C@H]3C[C@H]4CC[C@]3(C)C4(C)C)CC2)cc(OC)c1OC [B7, (1R,2S,4R)-1,7,7-trimethylbicyclo [2.2.1]heptan-2-yl 4-oxo-4-(4-((E)-3-(3,4,5-trimethoxyphenyl)acryloyl)piperazin-1-yl)butanoate]
responders at 100 mg/kg [1]: 75%
responders at 100 mg/kg [2]: 50%
responders at 100 mg/kg [3]: 25%
responders at 100 mg/kg [4]: 0%

COc1cc(/C=C/C(=O)N2CCN(C(=O)CCC(=O)N3CCN(C(c4ccccc4)c4ccccc4)CC3)CC2)cc(OC)c1OC [B8, (E)-1-(4-benzhydrylpiperazin-1-yl)-4-(4-(3-(3,4,5-trimethoxyphenyl)acryloyl)piperazin-1-yl)butane-1,4-dione]
responders at 100 mg/kg [1]: 75%
responders at 100 mg/kg [2]: 75%
responders at 100 mg/kg [3]: 25%
responders at 100 mg/kg [4]: 0%
